Test results taken from patent US11110171B2, “PD-1 related cancer therapy” (New York University, priority 2017, dated 2021).

How the values were obtained:
[1] = system: phosphorylation of ERK, PLCγ and ZAP70 in Jurkat T cells; assay: Immunoblot of PD-1 signaling in Jurkat T cells stimulated with anti-CD3 or anti-CD3+PDL2 beads; assay type: cell-based, human; conditions: SAP-deficient (SAP KD) Jurkat T cells, SHP099 10 uM for one hour, anti-CD3+PDL2 beads 5 minutes
[2] = system: IL-2 secretion of human CD3+ T cells; assay: IL-2 secretion (ELISA) of primary human CD3+ T cells stimulated with anti-CD3 or anti-CD3+PDL2 beads; assay type: cell-based; conditions: control or SAP KD siRNA, anti-CD3+PDL2 beads 24 hours
Procedure: FIG. 13. (a) Jurkat T cells were transfected with non-targeting siRNA control and siRNA to SAP, followed by immunoblot analysis. […] Media was harvested and IL-2 levels were measured (ELISA). * P<0.05, NS not significant, n=3, unpaired t test. (c) control vector or SAP-expressing vector for 48 hours and samples were analyzed for SAP expression by immunoblotting. (d) Cell expressing SAP were stimulated overnight and CD69 expression levels were recorded by FACS. (e) T cells from XLP patients and healthy controls were tested for PD-1 expression by FACS analysis. For FIG. 7b 13b, the bars from left to right for each set are: Control, CD3, and CD3+PDL2.
By contrast, overexpression of SAP-GFP (FIG. 13c and FIG. 5b) abrogated the ability of PD-1 to inhibit anti-CD3-induced IL-2 secretion (FIG. 5c), CD69 up regulation (FIG. 5d and FIG. 13d), IFN-γ release (FIG. 5e), and T cell adhesion to fibronectin-coated wells (FIG. 5f). Thus, SAP appears to be a negative regulator of PD-1 signaling and function in T cells.
Primary human T cells were isolated from whole blood using RosetteSep (Stemcell) followed by Ficoll-Paque, according to the manufacturer's instructions. The cells were maintained in enriched media (HEPES 25 mM, Sodium pyruvate 100 mM, Nonessential amino acid, and L-Glutamine) at 5% C02 and 37° C. […]

CC1(N)CCN(c2cnc(-c3cccc(Cl)c3Cl)c(N)n2)CC1.Cl [SHP099]
PD-1's ability to inhibit the phosphorylation of ERK, PLCγ and ZAP70 [1]: abrogated
PD-1's ability to inhibit IL-2 secretion [2]: abrogation
